Measured values: article PMC5474674, “D-BMAP18 Antimicrobial Peptide Is Active In vitro, Resists to Pulmonary Proteases but Loses Its Activity in a Murine Model of Pseudomonas aeruginosa Lung Infection” (Frontiers in Chemistry, 2017)
In brackets after ≈: the same amount, converted by molar mass. Where a SMILES comes first, the peptide text is derived from it. [ ]: non-standard residue; d: D form.

Key:
Assay in all cases: MIC/MBC broth microdilution
[1] = system: P. aeruginosa PA01; assay type: cell-based, Pseudomonas aeruginosa; settings: D-BMAP18, strain PA01, n = 6
Description: (§1) MIC values were determined using the broth microdilution method.

[2] = system: P. aeruginosa PA03; assay type: cell-based, Pseudomonas aeruginosa; settings: D-BMAP18, strain PA03, n = 6
Description: as §1

[3] = system: P. aeruginosa PA05; assay type: cell-based, Pseudomonas aeruginosa; settings: D-BMAP18, strain PA05, n = 6
Description: as §1

[4] = system: P. aeruginosa PA07; assay type: cell-based, Pseudomonas aeruginosa; settings: D-BMAP18, strain PA07, n = 6
Description: as §1

[5] = system: P. aeruginosa PA08; assay type: cell-based, Pseudomonas aeruginosa; settings: D-BMAP18, strain PA08, n = 6
Description: as §1

[6] = system: P. aeruginosa PA09; assay type: cell-based, Pseudomonas aeruginosa; settings: D-BMAP18, strain PA09, n = 6
Description: as §1

[7] = system: P. aeruginosa PA10; assay type: cell-based, Pseudomonas aeruginosa; settings: D-BMAP18, strain PA10, n = 6
Description: as §1

[8] = system: P. aeruginosa PA14; assay type: cell-based, Pseudomonas aeruginosa; settings: D-BMAP18, strain PA14, n = 6
Description: as §1

[9] = system: P. aeruginosa PA21; assay type: cell-based, Pseudomonas aeruginosa; settings: D-BMAP18, strain PA21, n = 6
Description: as §1

[10] = system: P. aeruginosa PA22; assay type: cell-based, Pseudomonas aeruginosa; settings: D-BMAP18, strain PA22, n = 6
Description: as §1

[11] = system: P. aeruginosa PA31; assay type: cell-based, Pseudomonas aeruginosa; settings: D-BMAP18, strain PA31, n = 6
Description: as §1

[12] = system: P. aeruginosa RP73; assay type: cell-based, Pseudomonas aeruginosa; settings: D-BMAP18, strain RP73, n = 6
Description: as §1

[13] = system: S. maltophilia SM103; assay type: cell-based, Stenotrophomonas maltophilia; settings: D-BMAP18, strain SM103, n = 6
Description: as §1

[14] = system: S. maltophilia SM105; assay type: cell-based, Stenotrophomonas maltophilia; settings: D-BMAP18, strain SM105, n = 6
Description: as §1

[15] = system: S. maltophilia SM106; assay type: cell-based, Stenotrophomonas maltophilia; settings: D-BMAP18, strain SM106, n = 6
Description: as §1

[16] = system: S. maltophilia SM110; assay type: cell-based, Stenotrophomonas maltophilia; settings: D-BMAP18, strain SM110, n = 6
Description: as §1

[17] = system: S. maltophilia SM120; assay type: cell-based, Stenotrophomonas maltophilia; settings: D-BMAP18, strain SM120, n = 6
Description: as §1

[18] = system: S. maltophilia SM122; assay type: cell-based, Stenotrophomonas maltophilia; settings: D-BMAP18, strain SM122, n = 6
Description: as §1

[19] = system: S. maltophilia SM123; assay type: cell-based, Stenotrophomonas maltophilia; settings: D-BMAP18, strain SM123, n = 6
Description: as §1

[20] = system: S. maltophilia SM126; assay type: cell-based, Stenotrophomonas maltophilia; settings: D-BMAP18, strain SM126, n = 6
Description: as §1

[21] = system: S. maltophilia SM130; assay type: cell-based, Stenotrophomonas maltophilia; settings: D-BMAP18, strain SM130, n = 6
Description: as §1

[22] = system: S. maltophilia SM136; assay type: cell-based, Stenotrophomonas maltophilia; settings: D-BMAP18, strain SM136, n = 6
Description: as §1

[23] = system: S. maltophilia SM139; assay type: cell-based, Stenotrophomonas maltophilia; settings: D-BMAP18, strain SM139, n = 6
Description: as §1

[24] = system: S. maltophilia SM143; assay type: cell-based, Stenotrophomonas maltophilia; settings: D-BMAP18, strain SM143, n = 6
Description: as §1

[25] = broth microdilution, MH broth, 37°C 24 h
[26] = kills at least 99.9% of inoculum

CC(C)C[C@@H](NC(=O)[C@@H](CCCCN)NC(=O)[C@@H](CCCCN)NC(=O)[C@@H](Cc1ccccc1)NC(=O)[C@@H](CC(C)C)NC(=O)[C@@H](CCCCN)NC(=O)[C@@H](CCCCN)NC(=O)[C@@H](Cc1ccccc1)NC(=O)[C@@H](CCCCN)NC(=O)[C@@H](CCCCN)NC(=O)[C@@H](CCCNC(=N)N)NC(=O)[C@@H](Cc1ccccc1)NC(=O)[C@@H](CCCNC(=N)N)NC(=O)[C@@H](CCCCN)NC(=O)[C@@H](Cc1ccccc1)NC(=O)[C@@H](CCCNC(=N)N)NC(=O)CN)C(=O)N[C@H](CO)C(N)=O [D-BMAP18] (H-G[dR][dF][dK][dR][dF][dR][dK][dK][dF][dK][dK][dL][dF][dK][dK][dL][dS]-NH2)
MIC [1, 25]: 8 µg/mL (≈ 3.42 µM) | MBC [1, 26]: 32 µg/mL (≈ 13.7 µM) | MIC [2, 25]: 8 µg/mL (≈ 3.42 µM) | MBC [2, 26]: 8 µg/mL (≈ 3.42 µM) | MIC [3, 25]: 4 µg/mL (≈ 1.71 µM) | MBC [3, 26]: 8 µg/mL (≈ 3.42 µM) | MIC [4, 25]: 8 µg/mL (≈ 3.42 µM) | MBC [4, 26]: 8 µg/mL (≈ 3.42 µM) | MIC [5, 25]: 8 µg/mL (≈ 3.42 µM) | MBC [5, 26]: 16 µg/mL (≈ 6.83 µM) | MIC [6, 25]: 16 µg/mL (≈ 6.83 µM) | MBC [6, 26]: 32 µg/mL (≈ 13.7 µM) | MIC [7, 25]: 16 µg/mL (≈ 6.83 µM) | MBC [7, 26]: 32 µg/mL (≈ 13.7 µM) | MIC [8, 25]: 16 µg/mL (≈ 6.83 µM) | MBC [8, 26]: 32 µg/mL (≈ 13.7 µM) | MIC [9, 25]: 16 µg/mL (≈ 6.83 µM) | MBC [9, 26]: 32 µg/mL (≈ 13.7 µM) | MIC [10, 25]: 4 µg/mL (≈ 1.71 µM) | MBC [10, 26]: 32 µg/mL (≈ 13.7 µM) | MIC [11, 25]: 16 µg/mL (≈ 6.83 µM) | MBC [11, 26]: 32 µg/mL (≈ 13.7 µM) | MIC [12, 25]: 4 µg/mL (≈ 1.71 µM) | MBC [12, 26]: 8 µg/mL (≈ 3.42 µM) | MIC [13, 25]: 4 µg/mL (≈ 1.71 µM) | MBC [13, 26]: 4 µg/mL (≈ 1.71 µM) | MIC [14, 25]: 8 µg/mL (≈ 3.42 µM) | MBC [14, 26]: 8 µg/mL (≈ 3.42 µM) | MIC [15, 25]: 32 µg/mL (≈ 13.7 µM) | MBC [15, 26]: 32 µg/mL (≈ 13.7 µM) | MIC [16, 25]: 4 µg/mL (≈ 1.71 µM) | MBC [16, 26]: 4 µg/mL (≈ 1.71 µM) | MIC [17, 25]: 8 µg/mL (≈ 3.42 µM) | MBC [17, 26]: 16 µg/mL (≈ 6.83 µM) | MIC [18, 25]: 16 µg/mL (≈ 6.83 µM) | MBC [18, 26]: 16 µg/mL (≈ 6.83 µM) | MIC [19, 25]: 16 µg/mL (≈ 6.83 µM) | MBC [19, 26]: 16 µg/mL (≈ 6.83 µM) | MIC [20, 25]: 16 µg/mL (≈ 6.83 µM) | MBC [20, 26]: 32 µg/mL (≈ 13.7 µM) | MIC [21, 25]: 8 µg/mL (≈ 3.42 µM) | MBC [21, 26]: 16 µg/mL (≈ 6.83 µM) | MIC [22, 25]: 8 µg/mL (≈ 3.42 µM) | MBC [22, 26]: 16 µg/mL (≈ 6.83 µM) | MIC [23, 25]: 8 µg/mL (≈ 3.42 µM) | MBC [23, 26]: 8 µg/mL (≈ 3.42 µM) | MIC [24, 25]: 8 µg/mL (≈ 3.42 µM) | MBC [24, 26]: 8 µg/mL (≈ 3.42 µM)
